Patent publication US20110020460A1, “GPR 119 MODULATORS” (Pfizer Inc., priority 2009, published 2011)
“And” between values parts separate entries of the source, which are not always exact repeats. Equal values may be shown once.

Legend:
human GPR119 [1] = molecular target: T1, human GPR119 (Homo sapiens, UniProt Q8TDV5); assay: beta-lactamase reporter functional assay (hGPR119 HEK293-CRE beta-lactamase cells); assay type: cell-based; settings: one value per run; for EC50: hGPR119 HEK293-CRE beta-lactamase cells, read-out: Human B-lactamase Functional EC50; for Intrinsic Activity* (B-lactamase) / Emax: percent of maximal activity relative to standard GPR119 agonist (WO2005121121) at 10 microM; for Emax: read-out: Intrinsic Activity* (B-lactamase)
T1 construct: host or cells: HEK293-CRE-beta-lactamase
T1 sequence (Q8TDV5 1-335): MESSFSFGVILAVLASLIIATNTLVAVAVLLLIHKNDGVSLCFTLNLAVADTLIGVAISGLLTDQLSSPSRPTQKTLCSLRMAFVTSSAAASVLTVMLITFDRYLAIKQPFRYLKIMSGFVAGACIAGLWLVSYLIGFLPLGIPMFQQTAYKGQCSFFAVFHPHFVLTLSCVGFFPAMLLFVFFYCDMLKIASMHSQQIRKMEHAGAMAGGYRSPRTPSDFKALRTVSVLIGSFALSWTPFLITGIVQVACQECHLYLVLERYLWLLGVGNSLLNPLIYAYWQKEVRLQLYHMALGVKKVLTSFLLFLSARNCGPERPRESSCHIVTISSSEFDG
Protocol: The assay for GPR119 agonists utilizes a cell-based (hGPR119 HEK293-CRE beta-lactamase) reporter construct where agonist activation of human GPR119 is coupled to beta-lactamase production via a cyclic AMP response element (CRE). GPR119 activity is then measured utilizing a FRET-enabled beta-lactamase substrate, CCF4-AM (Live Blazer FRET-B/G Loading kit, Invitrogen cat #K1027). […] After 4 hours the plating medium was removed and replaced with 40 microL of assay medium (Assay medium is plating medium without potassium clavulanate and HIFBS). Varying concentrations of each compound to be tested was then added in a volume of 10 microL (final DMSO≦0.5%) and the cells were incubated for 16 hours at 37 degrees Celsius in a humidified environment containing 5% carbon dioxide. Plates were removed from the incubator and allowed to equilibrate to room temperature for approximately 15 minutes. 10 microL of 6×CCF4/AM working dye solution (prepared according to instructions in the Live Blazer FRET-B/G Loading kit, Invitrogen cat #K1027) was added per well and incubated at room temperature for 2 hours in the dark. Fluorescence was measured on an EnVision fluorimetric plate reader, excitation 405 nm, emission 460 nm/535 nm. EC50 determinations were made from agonist-response curves analyzed with a curve fitting program using a 4-parameter logistic dose-response equation.

human GPR119 [2] = molecular target: T2, human GPR119 (Homo sapiens, UniProt Q8TDV5); assay: beta-arrestin functional assay (DiscoverX PathHunter U2OS hGPR119 beta-arrestin cells); assay type: cell-based; settings: for EC50: read-out: Human B-arrestin Functional EC50; for Emax: U2OS, read-out: Intrinsic Activity* (B-arrestin)
T2 construct: host or cells: U2OS
Protocol: GPR119 agonist activity was also determined with a cell-based assay utilizing DiscoverX PathHunter β-arrestin cell assay technology and their U2OS hGPR119 β-arrestin cell line (DiscoverX Cat #93-0356C3). In this assay, agonist activation is determined by measuring agonist-induced interaction of […] with activated GPR119. A small, 42 amino acid enzyme fragment, called ProLink was appended to the C-terminus of GPR119. Arrestin was fused to the larger enzyme fragment, termed EA (Enzyme Acceptor). Activation of GPR119 stimulates binding of arrestin and forces the complementation of the two enzyme fragments, resulting in formation of a functional β-galactosidase enzyme capable of hydrolyzing substrate and generating a chemiluminescent signal.
EC50 determinations were made from an agonist-response curves analyzed with a curve fitting program using a 4-parameter logistic dose response equation.
T2 sequence (P32121 whole entry partner, one chain of several): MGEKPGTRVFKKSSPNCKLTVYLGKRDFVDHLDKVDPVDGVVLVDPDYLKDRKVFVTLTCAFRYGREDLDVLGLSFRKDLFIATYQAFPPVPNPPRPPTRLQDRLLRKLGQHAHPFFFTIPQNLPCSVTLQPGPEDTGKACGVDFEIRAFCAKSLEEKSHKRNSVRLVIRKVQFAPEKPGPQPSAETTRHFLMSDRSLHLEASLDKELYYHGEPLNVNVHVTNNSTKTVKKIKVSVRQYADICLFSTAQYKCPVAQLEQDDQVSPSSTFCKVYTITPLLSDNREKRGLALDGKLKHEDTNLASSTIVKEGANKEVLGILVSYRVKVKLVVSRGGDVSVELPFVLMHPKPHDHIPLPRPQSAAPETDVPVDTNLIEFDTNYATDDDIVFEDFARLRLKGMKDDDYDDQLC

human GPR119 [3] = molecular target: T1, human GPR119; assay: cAMP HTRF functional assay (hGPR119 HEK-CRE beta-lactamase cells); assay type: cell-based; settings: one value per run; for Intrinsic Activity* (cAMP) / Emax: percent of maximal activity relative to standard GPR119 agonist (WO2005121121) at 10 μM; for Emax: read-out: Intrinsic Activity* (cAMP); for EC50: hGPR119 HEK-CRE beta-lactamase cells, HTRF cAMP
Protocol: GPR119 agonist activity was also determined with a cell-based assay utilizing an HTRF (Homogeneous Time-Resolved Fluorescence) cAMP detection kit (cAMP dynamic 2 Assay Kit; Cis Bio cat #62AM4PEC) that measures cAMP levels in the cell. The method is a competitive immunoassay between native cAMP produced by the cells and the cAMP labeled with the dye d2. The tracer binding is visualized by a Mab anti-cAMP labeled with Cryptate. The specific signal (i.e. energy transfer) is inversely proportional to the concentration of cAMP in either standard or sample.
Following 30 minutes incubation at room temperature, 5 microL of labeled d2 cAMP and 5 microL of anti-cAMP antibody (both diluted 1:20 in cell lysis buffer; as described in the manufacturers assay protocol) were added to each well of the assay plate. […] Raw data were converted to nM cAMP by interpolation from a cAMP standard curve (as described in the manufacturer's assay protocol) and EC50 determinations were made from an agonist-response curves analyzed with a curve fitting program using a 4-parameter logistic dose response equation.

human GPR119 [4] = molecular target: T1, human GPR119; assay: GPR119 radioligand binding assay ([3H]-Compound A or [3H]-Compound B, HEK 293FT membranes); settings: Ki from IC50 by Cheng-Prusoff; one value per run; read-out: Human Binding Ki
Protocol: Cells were harvested via centrifugation (3,000×g, 10 minutes), washed once on DPBS (minus Ca++/Mg++), resuspended in 0.25M sucrose, 25 mM HEPES, 0.5 mM EDTA, pH 7.4 and frozen at −80 degrees Celsius.
The frozen cells were thawed on ice and centrifuged at 700×g (1400 rpm) for 10 minutes at 4 degrees Celsius. The cell pellet was resuspended in 20 mL phosphate-buffered saline, and centrifuged at 1400 rpm for 10 minutes. […] Cells were then lysed with 15 gentle strokes of a tight-fitting glass Dounce homogenizer. The homogenate was centrifuged at 1000×g (2200 rpm) for 10 minutes at 4 degrees Celsius. The supernatant was transferred into fresh centrifuge tubes on ice. The cell pellet was resuspended in homogenization buffer, and centrifuged again at 1000×g (2200 rpm) for 10 minutes at 4 degrees Celsius after which the supernatant was removed and the pellet resuspended in homogenization buffer. […] The solution was then centrifuged at 25,000×g (15000 rpm) for 20 minutes at 4 degrees Celsius, the supernatant was discarded, and the pellet was resuspended in fresh homogenization buffer (minus Benzonase and MgCl2). After repeating the 25,000×g centrifugation step, the final membrane pellet was resuspended in homogenization buffer and frozen at −80 degrees Celsius.
2 microL of each dilution was added to appropriate wells of a 96-well plate (each concentration in triplicate).
Membranes expressing GPR119 were thawed and diluted to a final concentration of 20 μg/100 microL per well in Binding Buffer, and 100 microL of diluted membranes were added to each well of 96-well plate.
The plate was incubated for 60 minutes w/shaking at room temperature (approximately 25 degrees Celsius). […] Filters were then washed six times using washing buffer (50 mM Tris-HCl, pH 7.5 kept at 4 degrees Celsius). The filter plates were then air-dyed at room temperature overnight.
IC50 determinations were made from competition curves, analyzed with a proprietary curve fitting program (SIGHTS) and a 4-parameter logistic dose response equation. Ki values were calculated from IC50 values, using the Cheng-Prusoff equation.

[5] = U2OS hGPR119 beta-arrestin cells, one value per run
[6] = percent of maximal activity relative to standard GPR119 agonist (WO2005121121) at 10 microM, one value per run
[7] = **curve was extrapolated to 100% to calculate an EC50

EC50 (human GPR119 [1]) | Intrinsic Activity* (B-lactamase) (human GPR119 [1]) | Emax (human GPR119 [1]) [%] | EC50 (human GPR119 [2]; [5]) [µM] | Emax (human GPR119 [2]; [6]) [%] | Intrinsic Activity* (cAMP) (human GPR119 [3]) | Emax (human GPR119 [3]) [%] | Ki (human GPR119 [4]) | EC50 (human GPR119 [3]) | EC50 (human GPR119 [2]; [7]) [µM] | Emax (human GPR119 [2]; [7]) [%] | SMILES
0.008 µM and 0.011 µM and 0.006 µM | 105% and 96% | 98 | 0.004 | 111 | 91% and 74% and 79% and 84% | 86 | 0.005 µM and 0.01 µM and 0.037 µM | – | – | – | CC(C)OC(=O)N1CCC(n2ncc(COc3ccc(-n4cnnn4)cc3F)c2C#N)CC1 [Example 3, Isopropyl 4-(5-cyano-4-{[2-fluoro-4-(1H-tetrazol-1-yl)phenoxy]-methyl}-1H-pyrazol-1-yl)piperidine-1-carboxylate]
0.02 µM and 0.039 µM and 0.064 µM | 102% and 94% | 100 | 0.016 | 80 | 75% and 74% | 89 | – | 0.009 µM and 0.006 µM and 0.007 µM | – | – | CC(C)OC(=O)N1CCC(n2ncc(COc3ccc(C#N)cc3F)c2C#N)CC1 [Example 8, Isopropyl 4-{5-cyano-4-[(4-cyano-2-fluorophenoxy)methyl]-1H-pyrazol-1-yl}piperidine-1-carboxylate]
– | – | – | 0.217 | 119 | 87% | 95 | 0.149 µM | 0.18 µM and 0.112 µM | – | – | CC1(OC(=O)N2CCC(n3ncc(COc4cc(F)ccc4F)c3C#N)CC2)CC1 [Example 13, 1-Methylcyclopropyl 4-{5-cyano-4-[(2,5-difluorophenoxy)methyl]-1H-pyrazol-1-yl}piperidine-1-carboxylate]
– | – | – | 0.495 | 109 | 78% | 74 | 0.723 µM | 0.436 µM and 0.494 µM | – | – | CC1(OC(=O)N2CCC(n3ncc(COc4cccc(F)c4F)c3C#N)CC2)CC1 [Example 14, 1-Methylcyclopropyl 4-{5-cyano-4-[(2,3-difluorophenoxy)methyl]-1H-pyrazol-1-yl}piperidine-1-carboxylate]
– | – | – | 0.063 | 104 | 102% and 112% and 131% | – | 0.268 µM and 0.16 µM | 0.198 µM and 0.106 µM and 0.129 µM | – | – | CC1(OC(=O)N2CCC(n3ncc(COc4ccc(C(N)=O)cc4F)c3C#N)CC2)CC1 [Example 15, 1-Methylcyclopropyl 4-{4-[(4-carbamoyl-2-fluorophenoxy)methyl]-5-cyano-1H-pyrazol-1-yl}piperidine-1-carboxylate]
– | – | – | 0.472 | – | 102% and 119% | 105 | – | 0.204 µM and 0.165 µM and 0.316 µM | 0.42 | 100 | CC1(OC(=O)N2CCC(n3ncc(COc4ccc(C(N)=O)cc4)c3C#N)CC2)CC1 [Example 16, 1-Methylcyclopropyl 4-{4-[(4-carbamoylphenoxy)methyl]-5-cyano-1H-pyrazol-1-yl}piperidine-1-carboxylate]
– | – | – | 0.161 | 67 | 91% | 95 | – | 0.039 µM and 0.026 µM | – | – | CC1(OC(=O)N2CCC(n3ncc(COc4ccc(C#N)cc4)c3C#N)CC2)CC1 [Example 17, 1-Methylcyclopropyl 4-(5-cyano-4-((4-cyanophenoxy)methyl)-1H-pyrazol-1-yl)piperidine-1-carboxylate]
– | – | – | 0.155 | 92 | 109% | 107 | 0.462 µM | 0.056 µM and 0.052 µM | – | – | CC1(OC(=O)N2CCC(n3ncc(COc4c(F)ccc(F)c4F)c3C#N)CC2)CC1 [Example 31, 1-Methylcyclopropyl 4-{5-cyano-4-[(2,3,6-trifluorophenoxy)methyl]-1H-pyrazol-1-yl}piperidine-1-carboxylate]
– | – | – | – | – | 92% | 85 | – | 0.244 µM and 0.274 µM | 1.33 | 100 | CC(C)OC(=O)N1CCC(n2ncc(COc3ccc(-c4nccn4C)cc3F)c2C#N)CC1 [Example 33, Isopropyl 4-(5-cyano-4-{[2-fluoro-4-(1-methyl-1H-imidazol-2-yl)phenoxy]methyl}-1H-pyrazol-1-yl)piperidine-1-carboxylate]
0.328 µM and 0.805 µM | 105% | 114 | – | – | – | 56 | 0.416 µM | 1.16 µM | – | – | Cc1nc(S(C)(=O)=O)ccc1NCc1cnn(C2CCN(C(=O)OC(C)C)CC2)c1C#N [Example 37, Isopropyl 4-[5-cyano-4-({[2-methyl-6-(methylsulfonyl)pyridin-3-yl]amino}methyl)-1H-pyrazol-1-yl]piperidine-1-carboxylate]
